Measurements from US9138495B2, “Conjugates and their uses in molecular imaging” (King's College London, priority 2010, dated 2015).

How the values were obtained:
[1] = molecular target: T1, sialoadhesin (Mus musculus, UniProt Q62230); assay type: in vivo; settings: group 2: ^67Ga citrate 5 min after unconjugated SER4; wild type mice, 3 h
T1 construct: Sialoadhesin is found on the surface of macrophages; endogenous in cells; host or cells: macrophages (spleen, liver) of living wild-type C57Bl/6 mice
T1 sequence (Q62230 20-1695): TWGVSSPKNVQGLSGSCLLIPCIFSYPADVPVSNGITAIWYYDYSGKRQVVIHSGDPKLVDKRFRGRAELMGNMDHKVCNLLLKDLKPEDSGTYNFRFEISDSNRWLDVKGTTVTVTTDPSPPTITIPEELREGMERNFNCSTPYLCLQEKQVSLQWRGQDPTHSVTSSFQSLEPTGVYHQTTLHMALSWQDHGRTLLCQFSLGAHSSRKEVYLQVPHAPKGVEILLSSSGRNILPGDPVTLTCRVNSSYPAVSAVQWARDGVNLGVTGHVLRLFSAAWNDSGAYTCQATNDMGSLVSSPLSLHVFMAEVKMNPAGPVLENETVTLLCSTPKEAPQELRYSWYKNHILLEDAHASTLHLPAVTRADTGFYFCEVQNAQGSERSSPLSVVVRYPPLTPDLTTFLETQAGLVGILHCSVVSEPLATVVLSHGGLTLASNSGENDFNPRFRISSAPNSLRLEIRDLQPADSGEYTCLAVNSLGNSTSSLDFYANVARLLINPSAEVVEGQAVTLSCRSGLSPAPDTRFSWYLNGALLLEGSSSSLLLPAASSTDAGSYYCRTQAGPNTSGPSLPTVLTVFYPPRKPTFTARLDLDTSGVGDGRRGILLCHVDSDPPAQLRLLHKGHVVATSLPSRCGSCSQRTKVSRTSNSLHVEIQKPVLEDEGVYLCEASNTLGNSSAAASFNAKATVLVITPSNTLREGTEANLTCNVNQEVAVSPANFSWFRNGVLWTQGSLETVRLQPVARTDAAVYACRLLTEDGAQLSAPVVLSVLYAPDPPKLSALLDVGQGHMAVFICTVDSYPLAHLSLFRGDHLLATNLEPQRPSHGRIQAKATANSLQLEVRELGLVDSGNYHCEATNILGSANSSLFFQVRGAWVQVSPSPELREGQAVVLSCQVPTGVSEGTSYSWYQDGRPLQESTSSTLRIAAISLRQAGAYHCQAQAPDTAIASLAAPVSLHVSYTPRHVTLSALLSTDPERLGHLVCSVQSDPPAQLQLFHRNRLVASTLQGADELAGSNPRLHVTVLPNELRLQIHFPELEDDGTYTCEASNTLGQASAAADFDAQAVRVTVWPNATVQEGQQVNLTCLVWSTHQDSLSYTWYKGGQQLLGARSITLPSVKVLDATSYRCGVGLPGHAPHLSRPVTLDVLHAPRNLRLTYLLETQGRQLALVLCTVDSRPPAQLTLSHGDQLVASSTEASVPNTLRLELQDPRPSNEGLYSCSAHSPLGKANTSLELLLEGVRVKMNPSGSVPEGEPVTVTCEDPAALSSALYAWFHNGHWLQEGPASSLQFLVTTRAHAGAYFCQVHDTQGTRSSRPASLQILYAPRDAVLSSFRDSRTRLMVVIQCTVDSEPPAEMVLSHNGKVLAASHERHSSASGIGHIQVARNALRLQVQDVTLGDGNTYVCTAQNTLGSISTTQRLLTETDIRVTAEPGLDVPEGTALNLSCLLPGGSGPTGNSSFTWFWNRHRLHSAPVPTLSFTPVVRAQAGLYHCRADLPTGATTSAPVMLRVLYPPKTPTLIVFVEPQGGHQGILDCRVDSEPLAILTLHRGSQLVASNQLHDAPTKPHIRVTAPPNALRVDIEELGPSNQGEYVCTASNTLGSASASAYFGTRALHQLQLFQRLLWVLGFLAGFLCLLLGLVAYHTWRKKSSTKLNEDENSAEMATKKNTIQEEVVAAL
Procedure: CP256-SER4 was labelled with ^67Ga to give ^67Ga-CP256-SER4. Groups of wild type mice were injected with either directly labelled Ga-CP256-SER4 (group 1), or SER4 (unconjugated) followed 5 min later by ^67Ga citrate (group 2) or CP256-SER4 followed by ^67Ga citrate.
The same experiments were also performed using sialoadhesin knockout mice. All animals were killed after 3 h and biodistribution of radioactivity determined.
^67Gallium radiolabelling was performed by addition of 45 μL ^67Ga citrate (0.6-0.75 MBq) to 90 μL (90 μg) CP256-SER4. Radiolabelling was allowed to proceed for 10 min before dilution to 350 μL with phosphate buffered saline. Injections containing 25 μg of labelled antibody were drawn up. Analysis of the radiolabelled antibody was performed by size exclusion HPLC using 0.1 M phosphate buffer containing 2 mM EDTA as the mobile phase to ensure good radiolabelling had been achieved prior to injection into animals.
Groups of wild type mice (C57Bl/6, male 8-10 weeks, n=2 to 3 per group) were injected with either directly labelled ^67Ga-CP256-SER4 (group 1), or SER4 (unconjugated) followed 5 min later by ^67Ga citrate (group 2) or CP256-SER4 followed by ^67Ga citrate. […] All animals were killed after 3 h and biodistribution of radioactivity determined by explanting tissues and weighing and counting.

[2] = molecular target: T2, human apo-transferrin (Homo sapiens, UniProt P02787); experiment: Tracer stability in apo-transferrin using 30 kDa MWCO filters; assay type: in vitro ADME; settings: tracer radiolabelled at 100 μM ligand, 37° C.
T2 construct: purchased Sigma Aldrich T5391-10MG
T2 sequence (P02787 20-698): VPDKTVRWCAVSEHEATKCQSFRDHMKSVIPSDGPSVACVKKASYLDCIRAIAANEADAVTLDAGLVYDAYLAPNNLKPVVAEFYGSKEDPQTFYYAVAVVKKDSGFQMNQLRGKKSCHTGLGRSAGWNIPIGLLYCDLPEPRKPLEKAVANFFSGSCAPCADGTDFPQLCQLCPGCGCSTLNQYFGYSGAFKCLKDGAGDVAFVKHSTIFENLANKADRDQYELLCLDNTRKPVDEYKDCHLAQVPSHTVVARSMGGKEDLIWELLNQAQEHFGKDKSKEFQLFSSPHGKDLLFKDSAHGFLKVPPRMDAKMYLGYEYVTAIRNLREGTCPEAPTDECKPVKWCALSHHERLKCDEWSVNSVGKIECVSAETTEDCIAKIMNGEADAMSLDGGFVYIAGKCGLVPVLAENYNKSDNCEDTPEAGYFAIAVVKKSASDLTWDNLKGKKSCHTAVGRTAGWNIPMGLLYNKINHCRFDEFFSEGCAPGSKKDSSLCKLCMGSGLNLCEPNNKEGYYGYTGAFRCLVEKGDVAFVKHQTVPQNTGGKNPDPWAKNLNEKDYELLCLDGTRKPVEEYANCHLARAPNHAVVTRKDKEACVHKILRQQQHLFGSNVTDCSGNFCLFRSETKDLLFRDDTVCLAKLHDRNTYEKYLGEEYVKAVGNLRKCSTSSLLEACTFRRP
Procedure: 50 mM TRIS-HCl buffer (pH 7.5) was prepared by dilution of a 1 M stock solution. Sodium bicarbonate was added to a concentration of 25 mM. A 2.5 mg/ml (32 μM) solution of apo-transferrin was prepared in this buffer. Solutions of all tracers were radiolabelled at a concentration of 100 μM. A 10 μM CP256 solution was also prepared. See table 9 for radiolabelling conditions. A 10 μl aliquot of each radiolabelled tracer was added to 30 μl of an appropriate buffer to neutralise the pH to between 7 and 7.5. This buffer was 2 M TRIS-HCl (pH 7.5) in the case of those tracers labelled in the acetate buffer. For preparations of ^67Ga-CP256 and ^67Ga-Citrate the buffer was PBS. Details can be seen in Table 9. Apo-transferrin solution (200 μl) in a plastic microcentrifuge tube was incubated at 37° C. in a metal heating block. To this was added 20 μl of each pH-neutralised tracer. 20 μl of each tracer was also incubated in a reference buffer (containing no apo-transferrin) of 50 mM TRIS-HCl containing 25 mM sodium bicarbonate. […] The filter section of the tube was removed and counted separately from the tube in a gamma counter. Percentage binding of the radioactivity to the MWCO filter was calculated using the following equation: Counts from filter section/Counts from filter section+counts from tube section×100 The analysis was done in triplicate after 4 hours for the apo-transferrin incubations. […]

[3] = molecular target: T3, serum transferrin (Homo sapiens, UniProt P02787); experiment: Labelling of CP256 with ^68Ga in serum (PD10, ethanol precipitation, ITLC); assay type: in vitro ADME
T3 construct: from tissue; host or cells: human blood serum
T3 sequence (P02787 20-698): as above
Procedure: Two different radiolabelling techniques were used. In method 1, 100 μl of chelator (CP-256, 2.35 mM, 1.17 mM, 589 μM, 117 μM, 23 μM and 11.7 μM; pH 7-7.5 in PBS/bicarbonate buffer) was mixed with 300 μl of human serum. After 10-15 minutes 20 μl of 68Ga eluate was added and the solution incubated at 37° C. in a plastic tube. In the second method, 20 μl of ^68Ga solution was added to the 300 μl of human blood serum. After 15-20 minutes 100 μl of chelator (Cp-256) was added. At each time point 50 μl of the incubation solution was applied to the top of the PD-10 column and eluted the column with PBS collecting 0.5 ml fractions. Fractions were counted in a gamma counter (Perkin Elmer wizard 31480 automatic gamma counter, 10 seconds per sample). The incubated solution were also analysed by ethanol precipitation, counting the pellet and supernatant after centrifugation to determine protein bound ^68Ga, and the centrifuged supernatants were analysed by ITLC-SG with 0.1 M sodium citrate as mobile phase. In these conditions “free” ^68Ga migrates with the solvent front (Rf=1) and ^68Ga-CP256 remains at the origin (Rf=0).

activity in circulating blood [1] [% ID/g]	% radioactivity bound to MWCO filter, in reference buffer ([2]; 50 mM TRIS-HCl, 25 mM bicarbonate, no apo-transferrin) [%]	% radioactivity bound to MWCO filter, apo-transferrin incubation, after 4 hours ([2]; apo-transferrin, 4 hours) [%]	CP256 sample concentration giving a chromatogram similar to that of ^68Ga-CP256 in serum ([3]; ^68Ga chloride added to mixture of CP256 and human serum) [µM]	free ^68Ga (ITLC of supernatants) ([3]; serum containing CP256)	protein bound ^68Ga (ethanol precipitation) ([3]; serum containing CP256)	SMILES	chelation of ^68Ga in competition with serum transferrin ([3]; ^68Ga chloride added to mixture of CP256 and human serum, 37° C.)	extraction of ^68Ga from ^68Ga-transferrin complex ([3]; ^68Ga equilibrated first with serum, then CP256 added)
7	1.7 ± 0.5	73.0 ± 4.1				O=C([O-])CC(O)(CC(=O)[O-])C(=O)[O-].[67Ga+3] [^67Ga-CITRATE]		
			≥ 23	no detectable free ^68Ga	no measurable protein binding	CC(=O)NC(CCC(=O)NCc1c(O)c(=O)cc(C)n1C)(CCC(=O)NCc1c(O)c(=O)cc(C)n1C)CCC(=O)NCc1c(O)c(=O)cc(C)n1C.Cl.Cl.Cl [CP256, 4-Acetylamino-4-{2-[(3-hydroxy-1,6-dimethyl-4-oxo-1,4-dihydro-pyridin-2-ylmethyl)-carbamoyl]-ethyl}-heptanedioic acid bis-[(3-hydroxy-1,6-dimethyl-4-oxo-1,4-dihydro-pyridin-2-ylmethyl)-amide]tris hydrochloride salt]	competes effectively with serum transferrin	able to extract ^68Ga from ^68Ga-transferrin complex
